Where “and” joins values, the source holds several entries; their conditions need not be identical. Equal entries are not always repeated.
Key:
cyclophilins [1] = assay: Prolyl-isomerase inhibition screen on cyclophilins and cyclophilin mutants; format: biochemical, human
Protocol: (§1) IC50 values were calculated to be the value at which 50% inhibition was achieved on each compound's non-linear regression fitted curve.

[2] = system: mPTP opening in isolated mouse liver mitochondria; assay: Mitochondrial calcium retention capacity assay; format: cell-based; settings: 2 μM CsA, 10 μM B52-Cy5, 10 μM *B52-Cy5, 20 μM B53-Cy5, 20 μM *B53-Cy5; pulses of 60 μM CaCl2; compared to DMSO control
Protocol: Isolation of mouse liver mitochondria: All procedures used in animal studies were approved by the Institutional Animal Care and Use Committee at Massachusetts General Hospital. Female C57B1/6 J mice (Jackson Labs) age 10-12 weeks were anesthetized by isoflurane. The liver from one mouse was rinsed in ice-cold PBS, minced in ice-cold isolation buffer containing 0.28 M sucrose, 10 mM Hepes-KOH pH 7.2, 0.2 mM EDTA and 1% (w/v) BSA, gently homogenized with 4 strokes of a tight-fitting Teflon pestle at 1000 rpm, and then centrifuged for 10 minutes at 600 g at 4° C. The supernatant was recovered and centrifuged for 10 minutes at 8000 g at 4° C. The loose outer buffy coat was rinsed off and the pellet resuspended gently in isolation buffer and the spins were repeated. […] The suspension was kept on ice and all assays performed within 4-6 hours following isolation. Quality control was done with every preparation by adding 250 mcg mitochondria to 500 μl of assay buffer containing 137 mM KCl, 10 mM Hepes-KOH pH 7.2, 2.5 mM MgCl2, 5 mM each of glutamate and malate, and 3 mM KH2PO4. Sequential 150 μM ADP pulses were then delivered. Preparations with respiratory control ratio>6 (as assessed by the ratio of ADP-coupled state 3 respiration to state 4 respiration) were used for further experiments. Measurements were made in a custom-built fluorimeter using a cuvette with a Red Eye oxygen patch (Ocean Optics) and an optical probe that is connected to the fluorimeter.
Mitochondrial calcium retention capacity assays: 250 mcg of mouse liver mitochondria isolated as above were added to […] of assay buffer containing 125 mM KCl, 20 mM Hepes-KOH pH 7.2, 1 mM MgCl2, 5 mM each of glutamate and malate, and 3 mM KH2PO4. 0.5 μM Calcium Green-5N (Molecular Probes) was included to monitor extramitochondrial free Ca^2+. Fluorescence was continuously monitored in the custom-built fluorimeter described above, with excitation 470 nm and emission […]. Sequential 60 μM CaCl2) pulses were delivered until Ca^2+ uptake ceased and an abrupt release of previously taken up Ca^2+ was observed, consistent with mPTP opening. The calcium retention capacity ratio (CRC) was obtained by normalizing the number of Ca^2+ pulses that could be taken up in a given condition by that taken up under DMSO control conditions, as previously described^72.

HeLa cells = assay: Fluorescence microscopy on HeLa cells; format: cell-based, human; settings: Cy5 labeled compound 6 μM
Protocol: Fluorescence microscopy on Hela cells. Into 96 well black, clear bottom TC treated plates, cells were seeded in Dulbecco's Modified Eagle Medium (DMEM) supplemented with 10% fetal bovine serum 24 hours prior at a density where wells were ˜80% confluent at time of experiment. Media was removed and cells were then stained with 50 μL of mixture containing Cy5 labeled compound (6 μM) in Kreb's ringer solution HEPES buffered pH 7.2 (KRB), for 1 hour at 37° C. Then, 50 μL Hoechst 33342 (8 μM) and Mitotracker Green FM (0.1 μM) in KRB was added directly to wells containing cells and incubated for 15 minutes at 37° C. Media was removed and cells were washed two times with 100 μL KRB. Cells were then kept adherent to the wells in 100 μL KRB for imaging. Fluorescence microscopy was conducted on an Opera Phenix Plus High-Content Screening System, using Alexa 488, Alexa 647, and Hoescht 33342 channels. Images were analyzed using Harmony 4.9.

cyclophilins [3] = assay: Anisotropy binding assay of fluorescein-labeled macrocycles; set-up: species or system human; settings: 0.5 nM fluorescein-labeled macrocycle
Protocol: Final assay volume was 100 μL with 0.25% DMSO. Fluorescence anisotropy was then measured using a Tecan Spark® plate reader using 492 nm/523 nm excitation/emission settings.

CypD = biological target: T1, CypD (Homo sapiens, UniProt P30405); assay: Chymotrypsin coupled prolyl-isomerase assay; format: biochemical
T1 construct: PPIF (UniProtKB Entry P30405: res 45-207); made in house; host or cells: E. coli BL21(DE3)
Protocol: as §1

CypE [4] = biological target: T2, CypE (Homo sapiens, UniProt Q9UNP9); assay: Chymotrypsin coupled prolyl-isomerase assay; format: biochemical
T2 construct: PPIE (UniProtKB Entry Q9UNP9: res 131-301); host or cells: E. coli BL21(DE3)
Protocol: as §1

CypE [5] = biological target: T2, CypE; assay: Competition anisotropy (fluorescence polarization) binding assay with A26-Fl
Protocol: Competition anisotropy binding assay with A26-Fl: Adapted from previous work^54, into a flat-bottom black untreated 96 well plate (Corning), cyclophilin in assay buffer (25 mM HEPES pH 8.0, 100 mM NaCl, 0.01% Triton X-100) at a predetermined concentration from FIG. 27 was incubated with 0.5 nM A26-Fl for 10 minutes at room temperature. Competitor macrocycle was then added to each well and incubated for 24 hours. Final assay volume was 100 μL with 0.25% DMSO. Fluorescence anisotropy was then measured using a Tecan Spark® plate reader using 492 nm/523 nm excitation/emission settings. Raw fluorescence polarization data was normalized to protein+fluorescent probe and buffer+fluorescent probe and Ki values were calculated using one site-competitive binding equation with Prism 9, importing Kd values from A26-Fl (FIGS. 12A-12C).

CypE [6] = biological target: T2, CypE; assay: Assessment of covalent modification by mass spectrometry; settings: after treatment with NaCNBH3
Protocol: Assessment of covalent modification of CypE and other cyclophilin proteins: Into PCR strip, CypE or other cyclophilin in assay buffer (25 mM HEPES pH 8.0, 100 mM NaCl, 0.01% Triton X-100) was incubated with compound for 1 hour at room temperature. Final concentrations were 20 μM CypE, 100 μM compound, 0.5% DMSO, at a final volume of 20 μL. For analysis of lysine-iminoboronate modification, samples were directly submitted to Harvard's Center for Mass Spectroscopy for LC-MS analysis. For amine-lysine modification, samples were treated with 5 μL of 125 mM sodium cyanoborohydride dissolved in 25 mM Ammonium bicarbonate solution (pH 8.0) and incubated for 4 hours at room temperature. For all other wild-type cyclophilins, protein was treated for 4 hours with C3A, followed by 16 hour treatment with NaCNBH3. Final [NaCNBH3]=25 mM. Samples were then submitted for LC-MS as described above.

T2 sequence (Q9UNP9 131-301): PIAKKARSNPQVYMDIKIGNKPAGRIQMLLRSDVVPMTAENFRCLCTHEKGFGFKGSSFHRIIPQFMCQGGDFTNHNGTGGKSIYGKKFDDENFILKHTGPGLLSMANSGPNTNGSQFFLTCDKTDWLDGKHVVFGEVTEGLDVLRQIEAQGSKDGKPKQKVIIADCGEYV
T1 sequence (P30405 45-207): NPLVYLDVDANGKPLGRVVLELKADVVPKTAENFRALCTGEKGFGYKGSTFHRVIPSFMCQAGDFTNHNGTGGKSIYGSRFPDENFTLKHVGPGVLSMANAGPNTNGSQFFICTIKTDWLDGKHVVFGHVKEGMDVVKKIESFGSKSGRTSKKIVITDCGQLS

Row | binding to five non-prolyl isomerase active cyclophilins (PPIL2, PPIL3, PPIL4, PPIL6, SDCCAG-10) (cyclophilins [3]) | binding to prolyl-isomerase-active cyclophilins (in words) (cyclophilins [3]) | SMILES | calcium retention capacity prior to mPTP opening [2] | mitochondrial localization (overlap with Mitotracker Green) (HeLa cells) | other results
1 |  |  | CN1/C(=C/C=C/C=C/C2=[N+](CCCCCC(=O)NCCNC(=O)[C@@H]3CCNC(=O)/C=C/C(=O)N4CCC[C@](Cc5ccccc5)(C4)C(=O)N[C@@H](Cc4ccc(-c5ccc(CC(C(=O)O)C(=O)O)cc5)cc4)C(=O)NCc4ccccc4CC(=O)N3)c3ccccc3C2(C)C)C(C)(C)c2ccccc21 [Compound B52-Cy5] | increased calcium retention capacity | poor mitochondrial localization and fluorescence | cyclophilin selectivity profile (in words) (cyclophilins [1]): retain the same selectivity profile; plasma membrane / mammalian cell permeability (HeLa cells): not observed
2 | very weak or no binding | selective binding for CypD | O=C1/C=C/C(=O)N2CCC[C@](Cc3ccccc3)(C2)C(=O)N[C@@H](Cc2ccc(-c3ccc(CC(C(=O)O)C(=O)O)cc3)cc2)C(=O)NCc2ccccc2CC(=O)N[C@H](C(=O)NCCCOCCOCCOCCCNC(=O)c2ccc3c(c2)C(=O)OC32c3ccc(O)cc3Oc3cc(O)ccc32)CCN1 [Compound B52-Fl] |  |  | 
3 |  |  | C[N+]1=C(/C=C/C=C/C=C2\N(CCCCCC(=O)NCCNC(=O)[C@H]3CCNC(=O)/C=C/C(=O)N4CCC[C@@](Cc5ccccc5)(C4)C(=O)N[C@H](Cc4ccc(-c5ccc(CC(C(=O)O)C(=O)O)cc5)cc4)C(=O)NCc4ccccc4CC(=O)N3)c3ccccc3C2(C)C)C(C)(C)c2ccccc21 [*B52-Cy5] | did not influence calcium retention capacity | poor mitochondrial localization and fluorescence | CypD prolyl-isomerase inhibition (in words) (CypD): did not inhibit CypD; inhibition of cyclophilins tested (in words) (cyclophilins [1]): no substantial inhibition profile
4 | very weak or no binding | promiscuously binds | O=C1/C=C/C(=O)N2CCC[C@](Cc3ccccc3)(C2)C(=O)N[C@@H](Cc2ccco2)C(=O)NCc2ccccc2CC(=O)N[C@H](C(=O)NCCCOCCOCCOCCCNC(=O)c2ccc3c(c2)C(=O)OC32c3ccc(O)cc3Oc3cc(O)ccc32)CCN1 [Compound A26-Fl] |  |  | 
5 |  |  | CN1/C(=C/C=C/C=C/C2=[N+](CCCCCC(=O)NCCNC(=O)[C@@H]3CCNC(=O)/C=C/C(=O)N4CCC[C@](Cc5ccccc5)(C4)C(=O)N[C@@H](Cc4ccc(-c5ccc(C(CC(=O)O)CC(=O)O)cc5)cc4)C(=O)NCc4ccccc4CC(=O)N3)c3ccccc3C2(C)C)C(C)(C)c2ccccc21 [Compound B53-Cy5] | increased calcium retention capacity | poor mitochondrial localization and fluorescence | cyclophilin selectivity profile (in words) (cyclophilins [1]): retain the same selectivity profile; plasma membrane / mammalian cell permeability (HeLa cells): not observed
6 |  |  | NC(=O)[C@@H]1CCNC(=O)/C=C/C(=O)N2CCC[C@](Cc3ccccc3)(C2)C(=O)N[C@@H](Cc2ccc(-c3ccc(C=O)cc3)cc2)C(=O)NCc2ccccc2CC(=O)N1 [Compound C5A] |  |  | CypE potency and selectivity in prolyl isomerase assay (in words) (CypE [4]): loss in CypE potency and promiscuous cyclophilin inhibition; IC50 (CypE [4]; wild-type CypE, read-out: IC50^CypE): 1000 nM; decrease in potency relative to C3A (CypE [5]; FP competition with A26-Fl against CypE): 16 fold; CypE binding in FP competition (in words) (CypE [5]; compared to C3A): attenuated inhibition of CypE; mass shift of covalent adduct with CypE (CypE [6]): 806 Da and 780 Da
7 |  |  | C[N+]1=C(/C=C/C=C/C=C2\N(CCCCCC(=O)NCCNC(=O)[C@H]3CCNC(=O)/C=C/C(=O)N4CCC[C@@](Cc5ccccc5)(C4)C(=O)N[C@H](Cc4ccc(-c5ccc(C(CC(=O)O)CC(=O)O)cc5)cc4)C(=O)NCc4ccccc4CC(=O)N3)c3ccccc3C2(C)C)C(C)(C)c2ccccc21 [*B53-Cy5] | did not influence calcium retention capacity | poor mitochondrial localization and fluorescence | CypD prolyl-isomerase inhibition (in words) (CypD): did not inhibit CypD; inhibition of cyclophilins tested (in words) (cyclophilins [1]): no substantial inhibition profile
8 | very weak or no binding | selective binding for CypD | O=C(O)CC(CC(=O)O)c1ccc(-c2ccc(C[C@@H]3NC(=O)[C@]4(Cc5ccccc5)CCCN(C4)C(=O)/C=C/C(=O)NCC[C@@H](C(=O)NCCCOCCOCCOCCCNC(=O)c4ccc5c(c4)C(=O)OC54c5ccc(O)cc5Oc5cc(O)ccc54)NC(=O)Cc4ccccc4CNC3=O)cc2)cc1 [Compound B53-Fl] |  |  | 

Reference: patent publication US20250109165A1, “CYCLOPHILIN INHIBITORS AND USES THEREOF” (The Broad Institute, Inc., priority 2022, published 2025)
